Test results from PMC6933783 (ACS Omega, 2019).

How the values were obtained:
[1] = target: human acetylcholinesterase (AChE) (Homo sapiens, UniProt P22303); assay: Cholinesterase assay; assay type: biochemical; details: for αKi ± SE, AChE: uncompetitive contribution, Lineweaver-Burk plots
MAO-B = target: T1, MAO-B (Homo sapiens, UniProt P27338); assay: Reversibility of MAO-B inhibition; assay type: biochemical; details: dilution assay, 30 min preincubation, Figure S3
T1 sequence (P27338 1-520): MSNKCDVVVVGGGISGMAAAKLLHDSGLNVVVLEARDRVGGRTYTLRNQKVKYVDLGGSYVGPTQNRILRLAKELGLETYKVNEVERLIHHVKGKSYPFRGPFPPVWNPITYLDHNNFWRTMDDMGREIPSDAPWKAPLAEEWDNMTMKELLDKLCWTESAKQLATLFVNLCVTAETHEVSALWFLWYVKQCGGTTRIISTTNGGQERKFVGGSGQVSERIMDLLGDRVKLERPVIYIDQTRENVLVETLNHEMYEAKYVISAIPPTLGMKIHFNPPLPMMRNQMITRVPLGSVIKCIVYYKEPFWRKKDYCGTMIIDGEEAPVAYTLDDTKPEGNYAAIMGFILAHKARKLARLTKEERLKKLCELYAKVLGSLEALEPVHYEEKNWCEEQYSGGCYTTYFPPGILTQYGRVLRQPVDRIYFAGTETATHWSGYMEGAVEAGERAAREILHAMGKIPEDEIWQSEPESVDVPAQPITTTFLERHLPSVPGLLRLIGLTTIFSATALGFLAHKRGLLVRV

human acetylcholinesterase (AChE), sequence (P22303 32-617 isoform P22303-2 limits assumed): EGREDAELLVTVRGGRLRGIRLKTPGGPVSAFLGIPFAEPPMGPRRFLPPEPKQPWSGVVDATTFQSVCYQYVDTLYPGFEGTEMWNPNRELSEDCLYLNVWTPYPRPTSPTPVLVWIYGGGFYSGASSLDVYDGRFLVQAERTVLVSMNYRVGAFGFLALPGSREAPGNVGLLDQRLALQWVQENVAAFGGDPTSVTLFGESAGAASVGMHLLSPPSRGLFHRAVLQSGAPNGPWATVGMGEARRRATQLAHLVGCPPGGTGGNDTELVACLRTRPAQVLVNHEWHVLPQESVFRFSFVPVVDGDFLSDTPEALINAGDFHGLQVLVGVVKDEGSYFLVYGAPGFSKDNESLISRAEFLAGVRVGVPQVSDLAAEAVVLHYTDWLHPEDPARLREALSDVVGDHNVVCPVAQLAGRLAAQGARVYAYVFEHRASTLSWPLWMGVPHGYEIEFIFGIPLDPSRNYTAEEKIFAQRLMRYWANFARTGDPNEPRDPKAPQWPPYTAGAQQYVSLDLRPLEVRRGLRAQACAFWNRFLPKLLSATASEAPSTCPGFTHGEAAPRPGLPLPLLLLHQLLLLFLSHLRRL

| Structure (SMILES) | Ki [1] [µM] | αKi ± SE, AChE [1] [µM] | reversibility of MAO-B inhibition (MAO-B) |
| --- | --- | --- | --- |
| CN1CCN(CCCCOc2ccc3occc(=O)c3c2)CC1 [Compound 15, 6-(4-(4-Methylpiperazin-1-yl)butoxy)-4H-chromen-4-one] | 2.06 ± 0.56 | 5.36 ± 0.70 | – |
| C[C@@H]1CCCN1CCCCOc1ccc2occc(=O)c2c1 [Compound 27] | 9.23 ± 5.01 | 19.0 ± 4.1 | – |
| O=c1ccoc2ccc(OCCCCN3CCCCC3)cc12 [Compound 7, 6-(4-(piperidin-1-yl)butoxy)-4H-chromen-4-one] | – | – | reversibility of MAO-B inhibition was exemplarily demonstrated |
